Measurements from US8192962B2, “Processes for detecting toxic substances” (Daikin Industries, Ltd., priority 2001, dated 2012).

Test system: Detoxification protein genes
Assay: DNA chip mRNA expression in yeast, detoxification protein genes (Table 8)
Assay type: cell-based, Saccharomyces cerevisiae S288C
In short: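 Chemical exposure: 2 h, log-phase S. cerevisiae S288C, YPD, 25° C., dose set to inhibit growth without death. Profiling: mRNA labeled by reverse transcription with Cy3- or Cy5-dUTP, hybridized to whole-genome array. Output: fluorescence ratio against untreated culture.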

N#Cc1c(Cl)c(Cl)c(Cl)c(C#N)c1Cl [(9), 2,4,5,6-tetrachloro-1,3-benzenedicarbonitrile]
The level of expressed mRNA in the presence of chemical substance/The level of expressed mRNA in the absence of chemical substance (yeast gene YBL064C): 4.5 | The level of expressed mRNA in the presence of chemical substance/The level of expressed mRNA in the absence of chemical substance (yeast gene YBR008C): 54.6 | The level of expressed mRNA in the presence of chemical substance/The level of expressed mRNA in the absence of chemical substance (yeast gene YBR145W): 0.1 | The level of expressed mRNA in the presence of chemical substance/The level of expressed mRNA in the absence of chemical substance (yeast gene YBR244W): 1.4 | The level of expressed mRNA in the presence of chemical substance/The level of expressed mRNA in the absence of chemical substance (yeast gene YBR293W): 5.5 | The level of expressed mRNA in the presence of chemical substance/The level of expressed mRNA in the absence of chemical substance (yeast gene YCL035C): 1.9 | The level of expressed mRNA in the presence of chemical substance/The level of expressed mRNA in the absence of chemical substance (yeast gene YCL069W): 1.2 | The level of expressed mRNA in the presence of chemical substance/The level of expressed mRNA in the absence of chemical substance (yeast gene YCR083W): 1.8 | The level of expressed mRNA in the presence of chemical substance/The level of expressed mRNA in the absence of chemical substance (yeast gene YDL100C): 5.4 | The level of expressed mRNA in the presence of chemical substance/The level of expressed mRNA in the absence of chemical substance (yeast gene YDL168W): 8.2 | The level of expressed mRNA in the presence of chemical substance/The level of expressed mRNA in the absence of chemical substance (yeast gene YDR256C): 5.2 | The level of expressed mRNA in the presence of chemical substance/The level of expressed mRNA in the absence of chemical substance (yeast gene YDR453C): 4.5 | The level of expressed mRNA in the presence of chemical substance/The level of expressed mRNA in the absence of chemical substance (yeast gene YDR513W): 4.6 | The level of expressed mRNA in the presence of chemical substance/The level of expressed mRNA in the absence of chemical substance (yeast gene YDR538W): 0.3 | The level of expressed mRNA in the presence of chemical substance/The level of expressed mRNA in the absence of chemical substance (yeast gene YEL027W): 0.9 | The level of expressed mRNA in the presence of chemical substance/The level of expressed mRNA in the absence of chemical substance (yeast gene YEL065W): 0.1 | The level of expressed mRNA in the presence of chemical substance/The level of expressed mRNA in the absence of chemical substance (yeast gene YER185W): 2.9 | The level of expressed mRNA in the presence of chemical substance/The level of expressed mRNA in the absence of chemical substance (yeast gene YFL050C): 0.5 | The level of expressed mRNA in the presence of chemical substance/The level of expressed mRNA in the absence of chemical substance (yeast gene YGL013C): 3.0 | The level of expressed mRNA in the presence of chemical substance/The level of expressed mRNA in the absence of chemical substance (yeast gene YGL254W): 3.1 | The level of expressed mRNA in the presence of chemical substance/The level of expressed mRNA in the absence of chemical substance (yeast gene YGR088W): 1.5 | The level of expressed mRNA in the presence of chemical substance/The level of expressed mRNA in the absence of chemical substance (yeast gene YGR138C): 0.5 | The level of expressed mRNA in the presence of chemical substance/The level of expressed mRNA in the absence of chemical substance (yeast gene YGR197C): 16.7 | The level of expressed mRNA in the presence of chemical substance/The level of expressed mRNA in the absence of chemical substance (yeast gene YGR209C): 2.4 | The level of expressed mRNA in the presence of chemical substance/The level of expressed mRNA in the absence of chemical substance (yeast gene YGR224W): 0.9 | The level of expressed mRNA in the presence of chemical substance/The level of expressed mRNA in the absence of chemical substance (yeast gene YHL040C): 1.1 | The level of expressed mRNA in the presence of chemical substance/The level of expressed mRNA in the absence of chemical substance (yeast gene YHL047C): 1.2 | The level of expressed mRNA in the presence of chemical substance/The level of expressed mRNA in the absence of chemical substance (yeast gene YHR008C): 1.7 | The level of expressed mRNA in the presence of chemical substance/The level of expressed mRNA in the absence of chemical substance (yeast gene YHR048W): 4.5 | The level of expressed mRNA in the presence of chemical substance/The level of expressed mRNA in the absence of chemical substance (yeast gene YHR053C): 4.5 | The level of expressed mRNA in the presence of chemical substance/The level of expressed mRNA in the absence of chemical substance (yeast gene YHR055C): 3.9 | The level of expressed mRNA in the presence of chemical substance/The level of expressed mRNA in the absence of chemical substance (yeast gene YIR002C): 1.7 | The level of expressed mRNA in the presence of chemical substance/The level of expressed mRNA in the absence of chemical substance (yeast gene YIR038C): 4.6 | The level of expressed mRNA in the presence of chemical substance/The level of expressed mRNA in the absence of chemical substance (yeast gene YJL101C): 3.1 | The level of expressed mRNA in the presence of chemical substance/The level of expressed mRNA in the absence of chemical substance (yeast gene YJR104C): 1.9 | The level of expressed mRNA in the presence of chemical substance/The level of expressed mRNA in the absence of chemical substance (yeast gene YKL026C): 7.5 | The level of expressed mRNA in the presence of chemical substance/The level of expressed mRNA in the absence of chemical substance (yeast gene YKL064W): 2.4 | The level of expressed mRNA in the presence of chemical substance/The level of expressed mRNA in the absence of chemical substance (yeast gene YKR066C): 0.7 | The level of expressed mRNA in the presence of chemical substance/The level of expressed mRNA in the absence of chemical substance (yeast gene YKR105C): 1.0 | The level of expressed mRNA in the presence of chemical substance/The level of expressed mRNA in the absence of chemical substance (yeast gene YKR106W): 10.5 | The level of expressed mRNA in the presence of chemical substance/The level of expressed mRNA in the absence of chemical substance (yeast gene YLL028W): 1.2 | The level of expressed mRNA in the presence of chemical substance/The level of expressed mRNA in the absence of chemical substance (yeast gene YLL057C): 121.8 | The level of expressed mRNA in the presence of chemical substance/The level of expressed mRNA in the absence of chemical substance (yeast gene YLL060C): 13.0 | The level of expressed mRNA in the presence of chemical substance/The level of expressed mRNA in the absence of chemical substance (yeast gene YLR043C): 2.8 | The level of expressed mRNA in the presence of chemical substance/The level of expressed mRNA in the absence of chemical substance (yeast gene YLR046C): 1.0 | The level of expressed mRNA in the presence of chemical substance/The level of expressed mRNA in the absence of chemical substance (yeast gene YML028W): 0.8 | The level of expressed mRNA in the presence of chemical substance/The level of expressed mRNA in the absence of chemical substance (yeast gene YML116W): 1.4 | The level of expressed mRNA in the presence of chemical substance/The level of expressed mRNA in the absence of chemical substance (yeast gene YMR015C): 0.1 | The level of expressed mRNA in the presence of chemical substance/The level of expressed mRNA in the absence of chemical substance (yeast gene YMR038C): 2.4 | The level of expressed mRNA in the presence of chemical substance/The level of expressed mRNA in the absence of chemical substance (yeast gene YNL239W): 2.5 | The level of expressed mRNA in the presence of chemical substance/The level of expressed mRNA in the absence of chemical substance (yeast gene YNL241C): 3.4 | The level of expressed mRNA in the presence of chemical substance/The level of expressed mRNA in the absence of chemical substance (yeast gene YNL259C): 1.6 | The level of expressed mRNA in the presence of chemical substance/The level of expressed mRNA in the absence of chemical substance (yeast gene YOL158C): 1.7 | The level of expressed mRNA in the presence of chemical substance/The level of expressed mRNA in the absence of chemical substance (yeast gene YOR031W): 0.7 | The level of expressed mRNA in the presence of chemical substance/The level of expressed mRNA in the absence of chemical substance (yeast gene YOR153W): 3.2 | The level of expressed mRNA in the presence of chemical substance/The level of expressed mRNA in the absence of chemical substance (yeast gene YOR247W): 0.1 | The level of expressed mRNA in the presence of chemical substance/The level of expressed mRNA in the absence of chemical substance (yeast gene YOR251C): 0.8 | The level of expressed mRNA in the presence of chemical substance/The level of expressed mRNA in the absence of chemical substance (yeast gene YOR273C): 0.6 | The level of expressed mRNA in the presence of chemical substance/The level of expressed mRNA in the absence of chemical substance (yeast gene YPL163C): 0.1 | The level of expressed mRNA in the presence of chemical substance/The level of expressed mRNA in the absence of chemical substance (yeast gene YPR200C): 4.7
